Results: patent publication EP4198033A1, “HETEROCYCLIC COMPOUNDS FOR THE CONTROL OF INVERTEBRATE PESTS” (priority 2021, dated 2023)

How the values were obtained:
Assay type in all cases: in vivo
[1] = tested on: Diamond back moth (Plutella xylostella); assay: Diamond back moth leaf-dip test on cabbage leaves; conditions: 72 h, read-out: mortality in comparison with untreated controls
Description: The active compound was dissolved at the desired concentration in a mixture of 1:1 (vol:vol) distilled water: acetone. Surfactant (Kinetic HV) was added at a rate of 0.01% (vol/vol). The test solution was prepared on the day of use.
Leaves of cabbage were dipped in test solution and air-dried. Treated leaves were placed in petri dishes lined with moist filter paper and inoculated with ten 3rd instar larvae. Mortality was recorded 72 hours after treatment. Feeding damages were also recorded using a scale of 0-100%.

[2] = tested on: Tobacco budworm (Heliothis virescens); assay: Tobacco budworm test, insect diet with eggs in 96-well microtiter plates; conditions: 120 h, egg and larval mortality, 5 days, read-out: mortality in comparison with untreated controls
Description: For evaluating control of tobacco budworm (Heliothis virescens) the test unit consisted of 96-well-microtiter plates containing an insect diet and 15-25 H. virescens eggs.
The compounds were formulated using a solution containing 75% v/v water and 25% v/v DMSO. Different concentrations of formulated compounds were sprayed onto the insect diet at 10 µl using a custom-built micro atomizer, at two replications.
After application, microtiter plates were incubated at about 28±1°C and about 80±5 % relative humidity for 5 days. Egg and larval mortality was then visually assessed.

[3] = tested on: Boll weevil (Anthonomus grandis); assay: Boll weevil test, insect diet with eggs in 96-well microtiter plates; conditions: 120 h, egg and larval mortality, 5 days, read-out: mortality in comparison with untreated controls
Description: For evaluating control of boll weevil (Anthonomus grandis) the test unit consisted of 96-well-microtiter plates containing an insect diet and 5-10 A. grandis eggs.
The compounds were formulated using a solution containing 75% v/v water and 25% v/v DMSO. Different concentrations of formulated compounds were sprayed onto the insect diet at 5 µl, using a custom-built micro atomizer, at two replications.
After application, microtiter plates were incubated at about 25±1°C and about 75±5 % relative humidity for 5 days. Egg and larval mortality was then visually assessed.

[4] = tested on: Southern armyworm (Spodoptera eridania), 2nd instar larvae; assay: Southern armyworm foliar spray test on lima bean plants; conditions: 96 h, 4 days after treatment, read-out: mortality in comparison with untreated controls
Description: The active compounds were formulated by a Tecan liquid handler in 100% cyclohexanone as a 10,000-ppm solution supplied in tubes. The 10,000-ppm solution was serially diluted in 100% cyclohexanone to make interim solutions. These served as stock solutions for which final dilutions were made by the Tecan in 50% acetone:50% water (v/v) into 10 or 20ml glass vials. A nonionic surfactant (Kinetic®) was included in the solution at a volume of 0.01% (v/v). The vials were then inserted into an automated electrostatic sprayer equipped with an atomizing nozzle for application to plants/insects. Lima bean plants (variety Sieva) were grown 2 plants to a pot and selected for treatment at the 1st true leaf stage. Test solutions were sprayed onto the foliage by an automated electrostatic plant sprayer equipped with an atomizing spray nozzle. The plants were dried in the sprayer fume hood and then removed from the sprayer. Each pot was placed into perforated plastic bags with a zip closure. Ten to 11 armyworm larvae were placed into the bag and the bags zipped closed. Test plants were maintained in a growth room at about 25°C and about 20-40% relative humidity for 4 days, avoiding direct exposure to fluorescent light (14:10 light:dark photoperiod) to prevent trapping of heat inside the bags. Mortality and reduced feeding were assessed 4 days after treatment, compared to untreated control plants.

[5] = tested on: Yellow fever mosquito (Aedes aegypti); assay: whole plant or invertebrate; conditions: 48 h, larval mortality, 2 days, read-out: mortality in comparison with untreated controls
Description: For evaluating control of yellow fever mosquito (Aedes aegypti) the test unit consisted of 96-well-microtiter plates containing 200µl of tap water per well and 5-15 freshly hatched A. aegypti larvae.
The active compounds were formulated using a solution containing 75% (v/v) water and 25% (v/v) DMSO. Different concentrations of formulated compounds or mixtures were sprayed onto the insect diet at 2.5µl, using a custom-built micro atomizer, at two replications.
After application, microtiter plates were incubated at 28±1 °C, 80±5 % RH for 2 days. Larval mortality was then visually assessed.

[6] = tested on: Green Peach Aphid (Myzus persicae); assay: Green peach aphid systemic test, artificial diet in 96-well microtiter plates; conditions: 72 h, adult aphids, 3 days, read-out: mortality in comparison with untreated controls
Description: For evaluating control of green peach aphid (Myzus persicae) through systemic means the test unit consisted of 96-well-microtiter plates containing liquid artificial diet under an artificial mem brane.
The compounds were formulated using a solution containing 75% v/v water and 25% v/v DMSO. Different concentrations of formulated compounds were pipetted into the aphid diet, using a custom built pipetter, at two replications.
After application, 5-8 adult aphids were placed on the artificial membrane inside the microtiter plate wells. The aphids were then allowed to suck on the treated aphid diet and incubated at about 23±1°C and about 50±5 % relative humidity for 3 days. Aphid mortality and fecundity was then visually assessed.

CC(NC(=O)c1cc(Br)cc(C(F)(F)F)c1)c1ocnc1-c1ncc(OC(F)F)cn1 (centres unmarked) [I-1, 3-bromo-N-[1-[4-[5-(difluoromethoxy)pyrimidin-2-yl]oxazol-5-yl]ethyl]-5-(trifluoromethyl)benzamide]
≥ 75%: mortality at 300 ppm [1] | mortality at 2500 ppm [2] | mortality at 2500 ppm [3] | mortality at 300 ppm [4] | mortality at 2500 ppm [5]

CC(NC(=O)c1cc(OC(F)F)cc(C(F)(F)F)c1)c1ncoc1-c1ncccn1 (centres unmarked) [I-3, 3-(difluoromethoxy)-N-[1-(5-pyrimidin-2-yloxazol-4-yl)ethyl]-5-(trifluoromethyl)benzamide]
≥ 75%: mortality at 2500 ppm [6] | mortality at 2500 ppm [3] | mortality at 300 ppm [4] | mortality at 2500 ppm [5]

CCN(C(=O)c1cc(OC(F)F)cc(C(F)(F)F)c1)C(C)c1ncoc1-c1ncccn1 (centres unmarked) [I-5, 3-(difluoromethoxy)-N-ethyl-N-[1-(5-pyrimidin-2-yloxazol-4-yl)ethyl]-5-(trifluoromethyl)benzamide]
≥ 75%: mortality at 2500 ppm [6] | mortality at 2500 ppm [3]
